The values that follow come from ChEMBL document CHEMBL1641562, “Modifications of the C6-substituent of penicillin sulfones with the goal of improving inhibitor recognition and efficacy” (Bioorg Med Chem Lett, 2011).

Assay [1] is described as follows: Inhibition of beta-lactamase TEM-1.
A short description of assay [2]: Inhibition of beta-lactamase PDC-3.

Molecules are shown by their SMILES.

Broadly, the IC50 is the midpoint of a concentration-inhibition curve. Lower therefore signals inhibition by little substance. For `C=CCOC(=O)NC[C@@H]1C(=O)N2[C@@H](C(=O)O)C(C)(C)S(=O)(=O)[C@H]12`, in assay [1], the IC50 is > 50 µM.
On the same count and under the same terms, then `Cc1onc(-c2ccccc2)c1C(=O)N[C@@H]1C(=O)N2[C@@H](C(=O)O)C(C)(C)S(=O)(=O)[C@H]12`, with > 50 µM.
The same measure, in the same setting: under `CC1(C)[C@H](C(=O)O)N2C(=O)[C@@H](CC(=O)O)[C@H]2S1(=O)=O` stands > 50 µM.
Take `CC1(C)[C@H](C(=O)O)N2C(=O)C[C@H]2S1(=O)=O` [SULBACTAM]: the IC50 in assay [2] was 4.3 µM.
`CC1(C)[C@H](C(=O)O)N2C(=O)[C@@H](CNC(=O)Cc3ccccc3)[C@H]2S1(=O)=O`: the IC50 in assay [1] was > 50 µM.
With `CC1(C)[C@H](C(=O)O)N2C(=O)[C@@H](N)[C@H]2S1(=O)=O`, the IC50 in assay [1] was 8.4 µM; in assay [2] it was > 50 µM.
For the compound `COc1cccc(OC)c1C(=O)N[C@@H]1C(=O)N2[C@@H](C(=O)O)C(C)(C)S(=O)(=O)[C@H]12`, the IC50 in assay [1] was > 50 µM.
Consider `CC1(C)[C@H](C(=O)O)N2C(=O)[C@@H]([C@@H](O)CN)[C@H]2S1(=O)=O`, for which the IC50 in assay [1] and in assay [2] was 1.2 µM in each case.
In the case of `CC1(C)[C@H](C(=O)O)N2C(=O)[C@@H](CN)[C@H]2S1(=O)=O`, the figures for the IC50 in assay [1] and in assay [2] were 0.45 µM and > 50 µM, respectively.
The matching figures for `CC1(C)[C@H](C(=O)O)N2C(=O)[C@@H](CC(O)O)[C@H]2S1(=O)=O`: > 50 µM and > 50 µM.
As to `CC1(C)[C@H](C(=O)O)N2C(=O)[C@@H](CCCO)[C@H]2S1(=O)=O`, the IC50 in assay [1] is > 50 µM.
Consider `C=CC[C@@H]1C(=O)N2[C@@H](C(=O)OC(c3ccccc3)c3ccccc3)C(C)(C)S(=O)(=O)[C@H]12`, for which the IC50 came out at 35 µM in assay [1] and 1.2 µM in assay [2].
For `CC(C)(C)C(=O)NC[C@@H]1C(=O)N2[C@@H](C(=O)O)C(C)(C)S(=O)(=O)[C@H]12`, the IC50 in assay [1] was > 50 µM.
In the case of `CC1(C)[C@H](C(=O)O)N2C(=O)[C@@H](CC(=O)NO)[C@H]2S1(=O)=O`, the IC50 in assay [1] and in assay [2] was > 50 µM each time.
Regarding `CC1(C)[C@H](C(=O)O)N2C(=O)[C@@H](NCC(=O)O)[C@H]2S1(=O)=O`, the IC50 in assay [1] is > 50 µM.
The same measure, in the same setting: under `CC1(C)[C@H](C(=O)O)N2C(=O)[C@@H]([C@@H](O)C(=O)N3CCCC3)[C@H]2S1(=O)=O` stands 0.18 µM; under `CC1(C)[C@H](C(=O)O)N2C(=O)[C@@H](CNS(=O)(=O)C(F)(F)F)[C@H]2S1(=O)=O`, 6.1 µM.
Turning to `CC1(C)[C@H](C(=O)O)N2C(=O)[C@@H](NC(=O)Cc3ccccc3)[C@H]2S1(=O)=O`, the IC50 in assay [1] and in assay [2] was > 50 µM throughout.
For the compound `CC1(C)[C@H](C(=O)O)N2C(=O)[C@@H](CCO)[C@H]2S1(=O)=O`, the IC50 in assay [1] was > 50 µM.
The same measure, in the same setting: then `CC1(C)[C@H](C(=O)O)N2C(=O)[C@@H](NS(=O)(=O)C(F)(F)F)[C@H]2S1(=O)=O`, with > 50 µM.
